“Also recorded” adds a separate entry of the source. Non-standard residues stand in square brackets, D forms with d. Residues, ends and D or L forms follow the SMILES beside them. *: point of attachment. Myristoyl = CCCCCCCCCCCCCC(=O)*; NH(CH2)4NH2 = NCCCCN*
Assays:
human cells Kasumi = test: MTT cytotoxicity assay, Kasumi; assay type: cell-based; details: for IC50: 24 h
Description: (§1) The two human acute lymphoblastic leukemia cells K562 and Kasumi, two human breast adenocarcinoma cells MCF7 and MDA-MB-231, human hepatoma cell HepG-2, human lung adenocarcinoma cell A549, human gastric cancer cell SGC-7901, human colon cancer cell HCT-116, human ovarian cancer cell line SKOV3, or human lung epithelial normal cell 2B were obtained from Beyotime Biotechnology and utilized to test the cytotoxicity of compounds by MTT assays as previous study. The anti-inflammatory effect of the compounds was detected by the influence on the increase in the level of nitric oxide caused by lipopolysaccharide (LPS) based on the classic Griess method. RAW 264.7 cells (Shanghai Institutes for Biological Science) were seeded in 96-well plates and incubated for 24 h. Then, cells were treated with compounds 29, 29a, 31, and 31a (0-80 μM) for 30 min, followed by co-treatment with LPS ([…]) for another 24 h. The Nitric Oxide assay kit with Griess reagents (Beyotime, Lot: S0021, Shanghai, China) was used to examine cellular supernatant nitrite accumulation, which represents cellular NO levels. The OD value of 540 nm absorbance was detected with a microplate reader. Their authentication in the laboratory was performed regularly based on morphology and gene/protein expression. The tested micro-organisms including Gram-negative bacteria E. coli ATCC 35218 and Pseudomonas aeruginosa ATCC 27853, and Gram-positive bacteria Staphylococcus aureus ATCC 29213 and B. subtilis ATCC 6633, and fungi Candida albicans, Rhizoctonia solani and Aspergillus fumigatus were treated with different concentrations of compounds (1 μM, 10 μM, 100 μM) using Bauer-Kirby disk diffusion method to evaluate the antimicrobial activities.

[1] = system: human lung adenocarcinoma cell A549; test: MTT cytotoxicity assay, A549; assay type: cell-based; details: for IC50: 24 h; for cytotoxic / antitumor activity against A549 in words: MTT assay
Description: as §1

[2] = system: human acute lymphoblastic leukemia cells K562; test: cells; assay type: cell-based; details: 24 h
Description: as §1

[3] = system: human breast adenocarcinoma cells MCF7; test: cells; assay type: cell-based; details: 24 h
Description: as §1

[4] = system: human breast adenocarcinoma cells MDA-MB-231; test: cells; assay type: cell-based; details: 24 h
Description: as §1

[5] = system: human colon cancer cell HCT-116; test: cells; assay type: cell-based; details: 24 h
Description: as §1

[6] = system: human gastric cancer cell SGC-7901; test: cells; assay type: cell-based; details: 24 h
Description: as §1

[7] = system: human hepatoma cell HepG-2; test: cells; assay type: cell-based; details: 24 h
Description: as §1

[8] = system: human lung epithelial normal cell 2B; test: cells; assay type: cell-based; details: 24 h
Description: as §1

[9] = system: S. brevitalea DSM 7029 wild type; test: Growth curve of DSM 7029 wild type with compounds (Bioscreen C); assay type: cell-based, Schlegelella brevitalea DSM 7029; details: CYMG medium; for effect on growth of DSM 7029 wild type in words: compound 0.1 μg/μL, OD600 every hour for 42 h, Bioscreen C
Method: (§2) The growth curve was tested by Bioscreen C (Labsystems, Finland) as follow. Overnight culture was inoculated into 400 μL fresh CYMG medium in the ratio of 1:100 (the concentration of compounds was 0.1 μg/μL) and shook in normal speed. The OD600 value was gained in every hour for 42 h in total. Biofilm formation was measured at 18 h and 36 h respectively, as reported previously. In brief, the free-floating cells were removed, and the microtitre plate was washed with PBS (pH 7.4) after incubation for 18 h and 36 h. The biofilm was stained by adding 200 µL of crystal violet (0.1%) solution. Crystal violet solution was removed after 15 min and 200 µL of ethanol (95%) was added. The absorbance at OD600 was read using a microplate reader (Infinite M200, Tecan, Männedorf, Switzerland). Meanwhile, free-floating cells were used to test the secretion of pigment. The bacteria were removed and the supernatant was measured at OD600.

[10] = system: S. brevitalea DSM 7029 wild type; test: Biofilm formation of DSM 7029 wild type with compounds (crystal violet); assay type: cell-based, Schlegelella brevitalea DSM 7029; details: for effect on biofilm formation of DSM 7029 wild type in words: crystal violet staining
Method: as §2

[11] = Chemical stability of 1 in MeOH (oxidation to 2); assay type: physicochemical; details: purified 1 dissolved in MeOH for 3 days
[12] = system: methionyl-tRNA formyltransferase (Fmt); test: In vitro transformylation assay with Fmt; assay type: biochemical, Schlegelella brevitalea DSM 7029; details: 1 mM substrate, 25 μM Fmt, 1.5 mM N5,N10-methenylH4F, 50 mM HEPES pH 7.5, 30 °C, 4 h
Method: The in vitro assay of formyltransferase was tested. In brief, the formyl-donor co-substrate intermediate N^5, N^10-methenylH4F was first synthesized as follow: 14 mg of N^5-fH4F was dissolved in 3 mL of water and was converted to N^5, N^10-methenylH^4F through addition of 0.1 M HCl, until pH 1.9 was reached. The solution was then brought to a final volume of 4.4 mL with water and continually incubated at room temperature for 4 h. Then, the transformylation assay was setup in a 50 μL volume, in the presence of 50 mM HEPES buffer pH 7.5, 1 mM substrates (compounds 1, 1a, 13a), 1.5 mM N^5, N^10-methenylH4F, and 25 μM Fmt (35 kDa). Before the addition of the compounds and the enzyme, the intermediate N^5, N^10-methenylH4F was preincubated in the reaction buffer at 30 °C for 30 min, to permit the final pH-dependent conversion to N^10-fH4F. After the addition of the compounds and the enzyme, the reaction was allowed to proceed for 4 h at 30 °C, then ceased by the addition of 2 μL FA, and analyzed via HPLC‒MS. The condition for 1: 0–3 min, 20% ACN; 3–18 min, 20–60% ACN; 18.1 min, 95% ACN; 18.1–22 min, 95% ACN; 22.1 min, 20% ACN; 22.1–25 min, 20% ACN, ACN and H2O contained 0.1% FA; detection by UV spectroscopy at 200–400 nm. […]

tumor lines = test: MTT cytotoxicity assay, statements on the whole panel; assay type: cell-based, human; details: MTT assay, panel of tumor cell lines
Description: as §1

native host DSM 7029 = test: Inhibition zone test on the native host DSM 7029; assay type: cell-based, Schlegelella brevitalea DSM 7029; details: same method as for the seven tested strains
Description: as §1, with “The tested micro-organisms including Gram-negative bacteria E. coli ATCC 35218 and Pseudomonas aeruginosa ATCC 27853, and Gram-positive bacteria Staphylococcus aureus ATCC 29213 and B. subtilis ATCC 6633, and fungi Candida albicans, Rhizoctonia solani and Aspergillus fumigatus were treated with different concentrations of compounds (1 μM, 10 μM, 100 μM) using Bauer-Kirby disk diffusion method to evaluate the antimicrobial activities.” left out

HepG2 cells [13] = test: Extracellular and intracellular compound in HepG2 cells (LC-MS); assay type: in vitro ADME, human; details: 3 h; for Intracellular compound, Average / Extracellular compound, Average: HepG2, six-well plates, 5 μg/mL (10,000 ng in total), mean of n = 3; for Intracellular compound, Average: cells extracted with MeOH; for Extracellular compound, Average: culture medium extracted with MeOH
Method: (§3) Comparing the concentration of compounds (7, 10, 10a) in extracellular and intracellular after the HepG2 cell line dealt with compounds. HepG2 cells were plated in six-well plates at a density of 1.5 × 10^5 cells/well and grew overnight. After cell treated with compounds (5 μg/mL) for 3 h, the compounds were extracted with MeOH for cells culture medium and cells separately as followed the reported method. The compounds were quantified by LC‒MS (5%‒95% ACN in 15 min). The cell numbers of HepG2 with the compounds treatments was determined. […]
(§4) To determine whether the difference in bioactivity of products (with or without Put moiety) is due to variations in cellular uptake, we treated hepatoma cell line HepG2 with compounds 7 (C12 acyl), 10 (C14 acyl), and 10a (C14 acyl and without Put) (Supplementary Fig. 33c). The cells were treated for 3 h, and then culture medium and cells were extracted separately. LC-MS was used to detect and quantify the compounds.
(§5) At lower concentrations (5000 ng/mL, and 10,000 ng in total for each group), and […]
(§6) may be contributing to the differences in antitumor activity (Supplementary Fig. 33b).
(§7) This could be due to differences in the speed of cellu lar uptake or differences in drug metabolism rate, requiring further experimental investigation.

HepG2 cells [14] = test: Cell numbers of HepG2 after compound treatment; assay type: cell-based, human; details: HepG2, 1.5 × 10^5 cells/well plated, compound 5 μg/mL, 3 h; mean of n = 3
Method: as §3, §4, §5, §6, §7

[15] = Solubility in solvents (observation); assay type: physicochemical; details: observation in water, methanol, acetonitrile, DMSO
Description: Putrescine is also a precursor of some specialized compounds, such as industrial polyamide nylon 4,6[33] and siderophore alcaligin[55]. To clarify the function of the Put moiety of glidonins, we synthesized lipopeptide 10a without the Put group.

[16] = relative to wild type treated with H2O = 100%, crystal violet 0.1%, OD600, mean of n = 3

| IC50 [7] [µM] | SMILES | IC50 (human cells Kasumi) [µM] | IC50 [1] [µM] | cytotoxic / antitumor activity against A549 in words [1] | IC50 [2] [µM] | IC50 [3] [µM] | IC50 [4] [µM] | IC50 [5] [µM] | IC50 [6] [µM] | IC50 [8] [µM] | effect on growth of DSM 7029 wild type in words [9] | effect on biofilm formation of DSM 7029 wild type in words [10] | Intracellular compound, Average (HepG2 cells [13]) [ng] | Extracellular compound, Average (HepG2 cells [13]) [ng] | solubility in words [15] | also measured |
| --- | --- | --- | --- | --- | --- | --- | --- | --- | --- | --- | --- | --- | --- | --- | --- | --- |
| > 20 | CSCC[C@@H](N)C(=O)N[C@H](CC(N)=O)C(=O)N1CCC[C@H]1C(=O)N[C@H](C(=O)N[C@H](Cc1ccccc1)C(=O)N1CCC[C@H]1C(=O)N[C@@H](Cc1c[nH]c2ccccc12)C(=O)N[C@@H](C(=O)N[C@@H](C)C(=O)N[C@H](C)C(=O)N[C@@H](CO)C(=O)N[C@@H](C)C(=O)NCCCCN)C(C)C)C(C)C [Compound 1, Glidonin A] (H-[dM][dN]PV[dF]PW[dV]A[dA]SA-{NH(CH2)4NH2}) | 18.3 ± 1.22 | 7.2 ± 0.79 | moderate activities | > 20 | > 20 | > 20 | > 20 | > 20 | > 20 | no effect | less effect on biofilm formation |  |  |  | cytotoxic activity against Kasumi in words (human cells Kasumi; MTT assay): moderate activities; biofilm formation 18 h, Average [10, 16]: 98.1978%; biofilm formation 36 h, Average [10, 16]: 87.2902%; chemical stability: change of 1 to the Met(O) product 2 [11]: without changing to 2; formylation by Fmt, formyl product by HPLC-MS [12]: higher than control |
| > 20 | CCCCCCCCCCCCCC(=O)N[C@H](CCSC)C(=O)N[C@H](CC(N)=O)C(=O)N1CCC[C@H]1C(=O)N[C@H](C(=O)N[C@H](Cc1ccccc1)C(=O)N1CCC[C@H]1C(=O)N[C@@H](Cc1c[nH]c2ccccc12)C(=O)N[C@@H](C(=O)N[C@@H](C)C(=O)N[C@H](C)C(=O)N[C@@H](CO)C(=O)N[C@@H](C)C(=O)O)C(C)C)C(C)C [Compound 10a] (Myristoyl-[dM][dN]PV[dF]PW[dV]A[dA]SA-OH) |  | > 20 | lower than those of 10 |  |  |  |  |  | > 20 |  |  | 11.984 | 7245.41 | soluble only in dimethyl sulfoxide (DMSO) |  |

| SMILES | IC50 [7] [µM] | IC50 (human cells Kasumi) [µM] | IC50 [1] [µM] | cytotoxic / antitumor activity against A549 in words [1] | IC50 [2] [µM] | IC50 [3] [µM] | IC50 [4] [µM] | IC50 [5] [µM] | IC50 [6] [µM] | IC50 [8] [µM] | effect on growth of DSM 7029 wild type in words [9] | effect on biofilm formation of DSM 7029 wild type in words [10] | Intracellular compound, Average (HepG2 cells [13]) [ng] | Extracellular compound, Average (HepG2 cells [13]) [ng] | solubility in words [15] | also measured |
| --- | --- | --- | --- | --- | --- | --- | --- | --- | --- | --- | --- | --- | --- | --- | --- | --- |
| CCCCCCCCCCCCCC(=O)N[C@H](CCSC)C(=O)N[C@H](CC(N)=O)C(=O)N1CCC[C@H]1C(=O)N[C@H](C(=O)N[C@H](Cc1ccccc1)C(=O)N1CCC[C@H]1C(=O)N[C@@H](Cc1c[nH]c2ccccc12)C(=O)N[C@@H](C(=O)N[C@@H](C)C(=O)N[C@H](C)C(=O)N[C@@H](CO)C(=O)N[C@@H](C)C(=O)NCCCCN)C(C)C)C(C)C [Compound 10, Glidonin J] (Myristoyl-[dM][dN]PV[dF]PW[dV]A[dA]SA-{NH(CH2)4NH2}) | 6.68 | 1.39 | 7.15 ± 0.47 |  | 7.2 ± 0.79 | > 20 | 7.2 ± 0.79 | > 20 | > 20 | 11.8 ± 0.15 | weak inhibition of growth; also recorded: obviously inhibit the growth | increased biofilm formation | 6.078 | 1078.84 | easily soluble in water, methanol and acetonitrile | cytotoxic / antitumor activity in words (tumor lines): broad-spectrum cytotoxicity; inhibition of native host DSM 7029, inhibition zone method (native host DSM 7029): no inhibition; OD600 of wild type DSM 7029 with addition of compounds ([9]; control OD600 0.6): 0.4; total quantities (intracellular plus extracellular) in words (HepG2 cells [13]; HepG2, 5000 ng/mL, compared to 10a): lower total quantities; The cell numbers, Average (HepG2 cells [14]): 1303333 |

— publication PMC10587159, “Biosynthesis and engineering of the nonribosomal peptides with a C-terminal putrescine” (Nature Communications, 2023)
